Literature values as cited in patent publication US12454539B2, “Controlled-delivery cromakalim prodrugs” (Qlaris Bio, Inc., priority 2019, dated 2025).

Experiments:
[1] = tested on: normotensive mouse model; settings: once daily dosing
[2] = tested on: isolated rat mesenteric lymph vessels; settings: increasing concentrations
[3] = tested on: KATP channels; settings: membrane patches from rabbit mesenteric arterial smooth muscle cells, in the presence of ATP

SMILES: CC1(C)Oc2ccc(C#N)cc2[C@@H](N2CCCC2=O)[C@@H]1OP(=O)(O)O [CKLP1]
- intraocular pressure (IOP) [1]: lower intraocular pressure
- solubility in water: more water soluble than levcromakalim

SMILES: CC1(C)Oc2ccc(C#N)cc2C(N2CCCC2=O)C1O (stereo not shown) [Cromakalim, cromakalim]
- contractions of lymph vessels [2]: abolished the contractions of the vessels
- increase of open-state probability (Popen) of single KATP channels [3]: more than 9 fold
